In patent US20070049518A1, “Novel method of treatment of inflammatory skin conditions” (priority 2005, published 2007):
pIC50: −log10 of the molar value. Values joined by “and” are separate entries in the source; they are usually repeats but may differ in a detail not shown here. Equal entries are not always repeated. Where two headings read alike, the source gives them in different places.

Legend:
[1] = molecular target: T1, purified aureolysin type I (Staphylococcus aureus, UniProt P81177); assay: biochemical
T1 construct: purchased BioCentrum Ltd

[2] = molecular target: T2, purified aureolysin type II (Staphylococcus aureus, UniProt P81177); assay: Aureolysin enzyme inhibition assay, type II; assay type: biochemical
T2 sequence (P81177 1-509): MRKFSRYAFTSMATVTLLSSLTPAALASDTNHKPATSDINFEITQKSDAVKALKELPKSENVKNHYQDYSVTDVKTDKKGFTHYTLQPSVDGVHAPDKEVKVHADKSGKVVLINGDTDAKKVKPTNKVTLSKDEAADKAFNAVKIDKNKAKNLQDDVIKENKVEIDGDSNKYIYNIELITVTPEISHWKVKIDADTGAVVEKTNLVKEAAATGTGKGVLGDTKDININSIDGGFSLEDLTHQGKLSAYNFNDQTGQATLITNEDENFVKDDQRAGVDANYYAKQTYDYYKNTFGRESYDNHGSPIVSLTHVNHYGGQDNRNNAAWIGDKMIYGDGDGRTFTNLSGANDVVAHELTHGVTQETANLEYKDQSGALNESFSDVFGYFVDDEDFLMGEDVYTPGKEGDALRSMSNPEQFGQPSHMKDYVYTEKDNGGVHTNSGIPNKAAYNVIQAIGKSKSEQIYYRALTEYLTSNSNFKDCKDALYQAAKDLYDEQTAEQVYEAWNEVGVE

human MMP-1 = molecular target: T3, human MMP-1 (Homo sapiens, UniProt P03956); assay: MMP enzyme inhibition assay, MMP-1; assay type: biochemical; conditions: for pIC50: pH 7.5, 37° C., 1 hour
T3 construct: purchased Calbiochem
T3 sequence (P03956 100-469): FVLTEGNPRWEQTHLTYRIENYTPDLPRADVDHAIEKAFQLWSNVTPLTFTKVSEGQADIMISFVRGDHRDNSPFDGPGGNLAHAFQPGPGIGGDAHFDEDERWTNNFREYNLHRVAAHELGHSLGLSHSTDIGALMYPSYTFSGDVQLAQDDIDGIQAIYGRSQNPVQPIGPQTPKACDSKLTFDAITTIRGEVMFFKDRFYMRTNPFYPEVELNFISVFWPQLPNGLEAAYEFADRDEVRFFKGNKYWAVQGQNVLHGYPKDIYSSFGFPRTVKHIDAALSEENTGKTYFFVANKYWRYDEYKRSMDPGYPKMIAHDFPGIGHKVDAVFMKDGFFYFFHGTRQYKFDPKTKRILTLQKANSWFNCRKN

[3] = molecular target: T4, metalloprotease (aureolysin) activity in Staphylococcus aureus 8325-4 culture supernatants (Staphylococcus aureus, UniProt P81177); assay: Metalloprotease activity in S. aureus culture supernatants; assay type: biochemical
T4 construct: 4 μl S. aureus culture supernatant; endogenous in cells; host or cells: Staphylococcus aureus 8325-4 (culture supernatant)
Experimental: The culture was then centrifuged to remove the cells and the supernatant stored at −70° C. for subsequent use. […] Activity was expressed as the rate of increase in fluorescence as a function of time.

human MMP-9 = molecular target: T5, human MMP-9 (Homo sapiens, UniProt P14780); assay: MMP enzyme inhibition assay, MMP-9; assay type: biochemical; conditions: for pIC50: pH 7.5, 37° C., 1 hour
T5 construct: purchased Calbiochem
T5 sequence (P14780 94-707): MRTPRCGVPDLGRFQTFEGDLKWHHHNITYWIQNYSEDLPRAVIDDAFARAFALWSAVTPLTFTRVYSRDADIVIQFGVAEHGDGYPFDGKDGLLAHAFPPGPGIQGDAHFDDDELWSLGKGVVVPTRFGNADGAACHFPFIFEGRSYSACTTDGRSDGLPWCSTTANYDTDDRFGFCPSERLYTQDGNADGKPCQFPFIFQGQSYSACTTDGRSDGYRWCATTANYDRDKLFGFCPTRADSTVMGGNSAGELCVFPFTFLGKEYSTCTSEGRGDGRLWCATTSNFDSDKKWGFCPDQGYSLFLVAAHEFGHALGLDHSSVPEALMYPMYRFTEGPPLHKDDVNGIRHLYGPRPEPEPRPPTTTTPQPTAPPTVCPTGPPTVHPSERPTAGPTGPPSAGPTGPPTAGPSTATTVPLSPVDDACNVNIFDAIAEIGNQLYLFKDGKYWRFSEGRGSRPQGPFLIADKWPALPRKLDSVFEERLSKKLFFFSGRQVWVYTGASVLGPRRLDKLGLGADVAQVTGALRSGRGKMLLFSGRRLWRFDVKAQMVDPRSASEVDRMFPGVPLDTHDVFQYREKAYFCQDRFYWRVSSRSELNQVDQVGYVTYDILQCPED

human MMP-8 = molecular target: T6, human MMP-8 (Homo sapiens, UniProt P22894); assay: MMP enzyme inhibition assay, MMP-8; assay type: biochemical; conditions: for pIC50: pH 7.5, 37° C., 1 hour
T6 construct: purchased Calbiochem
T6 sequence (P22894 101-467): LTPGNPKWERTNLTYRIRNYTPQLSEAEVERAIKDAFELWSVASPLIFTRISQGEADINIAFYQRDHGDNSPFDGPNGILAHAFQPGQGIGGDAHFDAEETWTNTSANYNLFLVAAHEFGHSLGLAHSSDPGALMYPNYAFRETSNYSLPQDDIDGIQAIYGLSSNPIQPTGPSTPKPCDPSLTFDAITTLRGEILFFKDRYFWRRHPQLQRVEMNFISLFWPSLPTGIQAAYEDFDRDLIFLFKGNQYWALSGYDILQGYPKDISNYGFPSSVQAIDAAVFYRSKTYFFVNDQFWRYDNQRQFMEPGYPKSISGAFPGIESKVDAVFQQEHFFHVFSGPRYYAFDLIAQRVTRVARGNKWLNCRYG

human MMP-2 = molecular target: T7, human MMP-2 (Homo sapiens, UniProt P08253); assay: MMP enzyme inhibition assay, MMP-2; assay type: biochemical; conditions: for pIC50: pH 7.5, 37° C., 1 hour
T7 construct: purchased Calbiochem
T7 sequence (P08253 110-660): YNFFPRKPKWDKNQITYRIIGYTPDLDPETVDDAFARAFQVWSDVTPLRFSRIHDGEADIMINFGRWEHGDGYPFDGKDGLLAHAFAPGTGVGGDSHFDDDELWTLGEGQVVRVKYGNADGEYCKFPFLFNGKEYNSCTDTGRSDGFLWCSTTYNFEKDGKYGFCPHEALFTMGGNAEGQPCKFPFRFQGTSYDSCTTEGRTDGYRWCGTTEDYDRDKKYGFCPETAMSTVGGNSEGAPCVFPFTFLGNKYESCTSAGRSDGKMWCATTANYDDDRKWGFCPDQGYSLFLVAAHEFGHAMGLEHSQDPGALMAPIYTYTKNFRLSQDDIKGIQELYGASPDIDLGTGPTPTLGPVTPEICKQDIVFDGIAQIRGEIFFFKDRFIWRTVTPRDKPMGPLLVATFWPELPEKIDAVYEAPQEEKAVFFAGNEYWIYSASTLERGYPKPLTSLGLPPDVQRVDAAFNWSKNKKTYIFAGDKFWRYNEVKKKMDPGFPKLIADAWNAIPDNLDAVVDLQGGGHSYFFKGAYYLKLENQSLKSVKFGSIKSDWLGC

aureolysin = aureolysin (Staphylococcus aureus, UniProt P81177); assay: Inhibition of aureolysin-mediated pro-uPA activation; conditions: for Urokinase activity after pro-uPA activation: Expt. 2, Compound 13 20 μM, pH 5.6
Text: Under these conditions the extent of pro-uPA cleavage as assessed by uPA activity was directly proportional to the concentration of aureolysin in the assay.

[4] = tested on: S. aureus ATCC 27733 or 8325-4; assay: Milk agar plate assay of S. aureus protease activity; assay type: cell-based, Staphylococcus aureus; conditions: FIG. 2
Experimental: In a second assay for measuring S. aureus protease activity directly, S. aureus ATCC 27733 or 8325-4 was cultured on 10% (v/v) skimmed milk agar plates containing 2% (v/v) DMSO with or without compound. Compounds dissolved in DMSO were incorporated into the solid medium immediately prior to pouring.

S. aureus 8325-4 = assay: S. aureus growth by turbidometry in micro-titre plates; assay type: cell-based, Staphylococcus aureus; conditions: Staphylococcus aureus, 83254, read-out: IC50 value (50% decrease in terminal absorbance); overnight, absorbance 620 nm
Experimental: Tryptic soy broth (0.18 ml) containing S. aureus 8325-4 (approximately 10^5 cells) was mixed with 20 μl 20% (v/v) DMSO vehicle±compound in the wells of a flat-bottomed clear polystyrene 96-well micro-titre plate. The plate was incubated overnight at 37° C./220 rpm and the absorbance measured at 620 nm the following day.

[5] = tested on: Human skin epidermal keratinocytes; assay: Keratinocyte activation, IL-8 production; assay type: cell-based; conditions: 48 hours, aureolysin 50 μg/ml
Text: Activated keratinocytes produce IL-8, a proinflammatory chemokine. Many bacterial products cause the activation of keratinocytes. Aureolysin may be evaluated for its effects on IL-8 production by keratinocytes. Human skin epidermal keratinocytes (TCS Cellworks) are maintained as per instructions. Proliferating cultures are trypsinised, harvested, treated with a trypsin inhibitor and resuspended in growth medium at approximately 50,000 cells/well, to provide confluent monolayers in 96 well plates. Cells are incubated overnight at 37° C. at 5% CO2 to allow recovery, the spent medium aspirated from the wells and replaced with fresh growth medium. The cells are incubated at 37° C. at 5% CO2 for a further 24 or 48 hours with aureolysin or buffer control.
The supernatants are removed from each well and the concentration of IL-8 is determined using a human IL-8 ELISA development kit from R&D systems (Catalog Number: DY208) using the manufacturers instructions.
In these experiments, the cells are incubated at 37° C. at 5% CO2 for 48 hours with aureolysin or buffer control. Poly IC and lipoteichoic acid (LTA), which stimulate IL-8 production in keratinocytes were used as positive controls.

[6] = pH 6.8, 37° C., 1 hour; read-out: IC50 value Aureolysin type II

| Compound | pIC50 [1] | pIC50 [2, 6] | pIC50 (human MMP-1) | pIC50 [3] | pIC50 (human MMP-9) | pIC50 (human MMP-8) | pIC50 (human MMP-2) | further results |
| --- | --- | --- | --- | --- | --- | --- | --- | --- |
| CNC(=O)[C@H](CCc1ccccc1)NC(=O)[C@H](CC(=O)NO)CC(C)C [Compound 16, (S)—N4-hydroxy-2-isobutyl-N1-((S)-1-(methylamino)-1-oxo-4-phenylbutan-2-yl)succinamide] | 7.24 | 7.03 | 5.21 | 7.02 | 5.70 | 5.80 | 5.68 | – |
| CNC(=O)C(CCc1ccccc1)NC(=O)C(CC(=O)NO)CC(C)C (stereo not shown) [Compound 13] | 6.48 | 6.16 | 8.25 | 6.16 | 8.72 | 8.80 | 8.96 | Urokinase activity after pro-uPA activation (aureolysin; aureolysin 0 μg/ml): 0.11 A405/0.5 h/μg; Urokinase activity after pro-uPA activation (aureolysin; aureolysin 0.1 μg/ml): 0.36 A405/0.5 h/μg; Urokinase activity after pro-uPA activation (aureolysin; aureolysin 0.3 μg/ml): 0.52 A405/0.5 h/μg; Urokinase activity after pro-uPA activation (aureolysin; aureolysin 0.8 μg/ml): 0.96 A405/0.5 h/μg; inhibition at 20 µM (aureolysin; pH 5.6, read-out: inhibition of aureolysin activation of pro-uPA): ≥ 82% |
| CC(C)C[C@H](NP(=O)(O)O[C@@H]1O[C@@H](C)[C@H](O)[C@@H](O)[C@H]1O)C(=O)N[C@@H](Cc1c[nH]c2ccccc12)C(=O)O [Compound 15, phosphoramidon] | 5.55 | 5.64 | – | 5.48 | – | – | – | inhibition at 2.7 µM (human MMP-1; @ 2.7 μM): 0%; inhibition at 2.7 µM (human MMP-9; @ 2.7 μM): 0%; inhibition at 2.7 µM (human MMP-8; @ 2.7 μM): 0%; inhibition at 2.7 µM (human MMP-2; @ 2.7 μM): 0% |
| CNC(=O)[C@@H](NC(=O)[C@H](CC(C)C)[C@H](O)C(=O)NO)C(C)(C)C [Compound 3, marimastat] | – | – | – | – | – | – | – | inhibition of proteolytic activity, zone of clearance of milk proteins (in words) [4]: inhibition of proteolytic activity |
| COc1ccc(S(=O)(=O)N(CC(=O)NO)CC(C)C)cc1 [Compound 14] | 6.00 | – | – | 5.44 | 8.00 | 7.68 | 8.34 | pIC50 ([2]; read-out: IC50 value Aureolysin type II; pH 6.8, 37° C., 1 hour): 5.60 |
| CCCCC[C@H](CC(=O)NO)C(=O)N[C@H](C(=O)N1CCC[C@H]1CO)C(C)C [Actinonin, actinonin, reference compound] | – | – | – | – | – | – | – | pIC50 (S. aureus 8325-4): 5.59 |
| CNC(=O)[C@H](Cc1c[nH]c2ccccc12)NC(=O)[C@@H](CC(=O)NO)CC(C)C [Compound 1, ilomastat] | 6.59 | 6.37 | – | 6.24 | – | – | – | – |
| CC(C)C[C@@H](C(=O)N[C@H](C(=O)N(C)C)C(C)(C)C)[C@H](O)C(=O)NO [Compound 5] | 4.57 | 4.39 | 7.96 | 4.36 | 7.52 | 8.41 | 8.11 | – |
| lipoteichoic acid [LTA] | – | – | – | – | – | – | – | IL-8 ± SE [5]: 454 pg/mL and 454 ± 61.0 pg/mL |
| Poly IC | – | – | – | – | – | – | – | IL-8 ± SE [5]: 282 pg/mL and 282 ± 0.9 pg/mL |
| CO[C@H](C(=O)NO)[C@@H](CC(C)C)C(=O)N[C@H](C(=O)Nc1ccccn1)C(C)(C)C [Compound 7, solimastat] | 5.66 | 5.46 | 8.48 | 5.35 | 8.29 | 8.77 | 8.49 | – |
| CC(C)C[C@@H](C(=O)N[C@H](C(=O)Nc1ccccn1)C(C)(C)C)[C@H](O)C(=O)NO [Compound 9] | 5.82 | 5.62 | 8.51 | 5.54 | 8.39 | 8.77 | 8.74 | – |
| CNC(=O)[C@H](CCc1ccccc1)NC(=O)[C@@H](CC(=O)NO)CC(C)C [Compound 17, (R)—N4-hydroxy-2-isobutyl-N1-((S)-1-(methylamino)-1-oxo-4-phenylbutan-2-yl)succinamide] | 5.92 | 5.64 | 7.77 | 5.64 | 8.23 | 8.36 | 8.62 | – |
